Assay results reported in patent US20250154554A1, “ANTIMICROBIAL SUSCEPTIBILITY” (priority 2022, published 2025).

The molecules below were run on Gram-positive bacteria (Staphylococcus spp, Enterococcus spp) (assay: Reference method (RM): disk diffusion and/or broth microdilution, S/I/R classification, Gram-positive strains). Conditions: EUCAST; FASTinov, Porto; spiked blood cultures.
Assay type: cell-based
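For EUCAST RM I in this document: susceptibility categories assigned with the latest EUCAST breakpoint tables or CLSI M100 29th edition breakpoints, with quality control of the reference methods following EUCAST and CLSI guidance.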
Experimental: (§1) For Colistin (on gram-negative bacteria) and vancomycin (in the case of Staphylococcus), the method used to determine the antimicrobial susceptibility was broth microdilution [5]. […] Standard methodologies were performed from the same inoculum used to spike the blood cultures. Quality control of the reference methods was also performed according to the recommendations of EUCAST and CLSI.
All the strains were classified as S, I or R according the reference methods. MIC was determined for vancomycin and colistin. The presence of ESBL on Enterobacterales group I, together with the screening for ESBL on Enterobacterales group II, and the screening for AmpC and presence of carbapenemases according EUCAST protocol for detection of mechanisms of resistance were also performed.
(§2) Positive blood cultures were spiked in blood agar and colonies identified and submitted to antimicrobial susceptibility assay according reference disk diffusion method and/or to MIC values determined by microdilution. The results were analysed using the most recent EUCAST breakpoint tables and the M100 (29th ed.) breakpoint tables from CLSI.

| Molecule | RM I (strains intermediate by reference method) | RM R (strains resistant by reference method) |
| --- | --- | --- |
| C[C@@H](O)[C@H]1C(=O)N2C(C(=O)O)=C(SCCN=CN)C[C@H]12 [Imipenem] | 39 | 26 |

Same assay, conditions: number of strains I; EUCAST; Hospital Ramon et Cajal, Madrid; patients blood cultures

| Molecule | EUCAST RM I |
| --- | --- |
| C[C@@H](O)[C@H]1C(=O)N2C(C(=O)O)=C(SCCN=CN)C[C@H]12 [Imipenem] | 12 |

Same assay, conditions: number of strains resistant; EUCAST; Hospital Ramon et Cajal, Madrid; patients blood cultures

| Molecule | EUCAST RM R |
| --- | --- |
| C[C@@H](O)[C@H]1C(=O)N2C(C(=O)O)=C(SCCN=CN)C[C@H]12 [Imipenem] | 1 |

What follows are molecules tested on K. pneumoniae (assay: MIC of strains giving very major errors (VME)). Conditions: strain EB 032, site 3.
Assay type: cell-based
Experimental: as §1, §2

| Molecule | MIC |
| --- | --- |
| Ceftolozane-tazobactam | 4 µg/mL |

Same assay, conditions: strain EB 101, site 1

| Molecule | MIC |
| --- | --- |
| Ceftolozane-tazobactam | >32 µg/mL |

Same assay, conditions: strain EB 677, site 1

| Molecule | MIC |
| --- | --- |
| Ceftolozane-tazobactam | 16 µg/mL |

Same assay, conditions: strain EB 679, site 1

| Molecule | MIC |
| --- | --- |
| Ceftolozane-tazobactam | >32 µg/mL |

What follows are molecules tested on Gram-negative bacteria (Enterobacterales, Pseudomonas, Acinetobacter) (assay: not given). Conditions: CLSI; total of 3 sites; blood cultures.

| Molecule | RM R (strains resistant by reference method) | RM S (strains susceptible by reference method) | RM I (strains intermediate by reference method) |
| --- | --- | --- | --- |
| NCC[C@H](O)C(=O)N[C@@H]1C[C@H](N)[C@@H](O[C@H]2O[C@H](CN)[C@@H](O)[C@H](O)[C@H]2O)[C@H](O)[C@H]1O[C@H]1O[C@H](CO)[C@@H](O)[C@H](N)[C@H]1O [Amikacin] | 27 | 316 | – |
| CO/N=C(\C(=O)N[C@@H]1C(=O)N2C(C(=O)O)=C(COC(C)=O)CS[C@H]12)c1csc(N)n1 [Cefotaxime] | 75 | 156 | – |
| Amoxacillin-clavulanic acid | 107 | 110 | 14 |
| Ceftazidime-avibactam | 8 | 307 | – |
| Ceftolozane-tazobactam | 40 | 267 | 5 |

Same assay, conditions: EUCAST; total of 3 sites; blood cultures

| Molecule | RM R (strains resistant by reference method) | RM S (strains susceptible by reference method) |
| --- | --- | --- |
| NCC[C@H](O)C(=O)N[C@@H]1C[C@H](N)[C@@H](O[C@H]2O[C@H](CN)[C@@H](O)[C@H](O)[C@H]2O)[C@H](O)[C@H]1O[C@H]1O[C@H](CO)[C@@H](O)[C@H](N)[C@H]1O [Amikacin] | 30 | 313 |
| CO/N=C(\C(=O)N[C@@H]1C(=O)N2C(C(=O)O)=C(COC(C)=O)CS[C@H]12)c1csc(N)n1 [Cefotaxime] | 75 | 156 |
| Amoxacillin-clavulanic acid | 125 | 106 |
| Ceftazidime-avibactam | 8 | 307 |
| Ceftolozane-tazobactam | 45 | 267 |

Same assay, conditions: number of strains I; CLSI; FASTinov, Porto; spiked on blood cultures

| Molecule | CLSI RM I |
| --- | --- |
| Amoxacillin-clavulanic acid | 5 |
| Ceftolozane-tazobactam | 4 |

Same assay, conditions: number of strains I; CLSI; Hospital Ramon et Cajal, Madrid; patients' blood cultures

| Molecule | CLSI RM I |
| --- | --- |
| Amoxacillin-clavulanic acid | 9 |

Same assay, conditions: number of strains I; CLSI; Hospital S. João, Porto; patients' blood cultures

| Molecule | CLSI RM I |
| --- | --- |
| Ceftolozane-tazobactam | 1 |

Same assay, conditions: number of strains resistant; CLSI; FASTinov, Porto; spiked on blood cultures

| Molecule | CLSI RM R |
| --- | --- |
| NCC[C@H](O)C(=O)N[C@@H]1C[C@H](N)[C@@H](O[C@H]2O[C@H](CN)[C@@H](O)[C@H](O)[C@H]2O)[C@H](O)[C@H]1O[C@H]1O[C@H](CO)[C@@H](O)[C@H](N)[C@H]1O [Amikacin] | 25 |
| CO/N=C(\C(=O)N[C@@H]1C(=O)N2C(C(=O)O)=C(COC(C)=O)CS[C@H]12)c1csc(N)n1 [Cefotaxime] | 54 |
| Amoxacillin-clavulanic acid | 56 |
| Ceftazidime-avibactam | 8 |
| Ceftolozane-tazobactam | 37 |

Same assay, conditions: number of strains resistant; CLSI; Hospital Ramon et Cajal, Madrid; patients' blood cultures

| Molecule | CLSI RM R |
| --- | --- |
| NCC[C@H](O)C(=O)N[C@@H]1C[C@H](N)[C@@H](O[C@H]2O[C@H](CN)[C@@H](O)[C@H](O)[C@H]2O)[C@H](O)[C@H]1O[C@H]1O[C@H](CO)[C@@H](O)[C@H](N)[C@H]1O [Amikacin] | 1 |
| CO/N=C(\C(=O)N[C@@H]1C(=O)N2C(C(=O)O)=C(COC(C)=O)CS[C@H]12)c1csc(N)n1 [Cefotaxime] | 13 |
| Amoxacillin-clavulanic acid | 19 |
| Ceftazidime-avibactam | 1 |
| Ceftolozane-tazobactam | 3 |

Same assay, conditions: number of strains resistant; CLSI; Hospital S. João, Porto; patients' blood cultures

| Molecule | CLSI RM R |
| --- | --- |
| NCC[C@H](O)C(=O)N[C@@H]1C[C@H](N)[C@@H](O[C@H]2O[C@H](CN)[C@@H](O)[C@H](O)[C@H]2O)[C@H](O)[C@H]1O[C@H]1O[C@H](CO)[C@@H](O)[C@H](N)[C@H]1O [Amikacin] | 1 |
| CO/N=C(\C(=O)N[C@@H]1C(=O)N2C(C(=O)O)=C(COC(C)=O)CS[C@H]12)c1csc(N)n1 [Cefotaxime] | 8 |
| Amoxacillin-clavulanic acid | 32 |

Same assay, conditions: number of strains resistant; EUCAST; FASTinov, Porto; spiked on blood cultures

| Molecule | EUCAST RM R |
| --- | --- |
| NCC[C@H](O)C(=O)N[C@@H]1C[C@H](N)[C@@H](O[C@H]2O[C@H](CN)[C@@H](O)[C@H](O)[C@H]2O)[C@H](O)[C@H]1O[C@H]1O[C@H](CO)[C@@H](O)[C@H](N)[C@H]1O [Amikacin] | 27 |
| CO/N=C(\C(=O)N[C@@H]1C(=O)N2C(C(=O)O)=C(COC(C)=O)CS[C@H]12)c1csc(N)n1 [Cefotaxime] | 54 |
| Amoxacillin-clavulanic acid | 62 |
| Ceftazidime-avibactam | 8 |
| Ceftolozane-tazobactam | 41 |

Same assay, conditions: number of strains resistant; EUCAST; Hospital Ramon et Cajal, Madrid; patients' blood cultures

| Molecule | EUCAST RM R |
| --- | --- |
| NCC[C@H](O)C(=O)N[C@@H]1C[C@H](N)[C@@H](O[C@H]2O[C@H](CN)[C@@H](O)[C@H](O)[C@H]2O)[C@H](O)[C@H]1O[C@H]1O[C@H](CO)[C@@H](O)[C@H](N)[C@H]1O [Amikacin] | 1 |
| CO/N=C(\C(=O)N[C@@H]1C(=O)N2C(C(=O)O)=C(COC(C)=O)CS[C@H]12)c1csc(N)n1 [Cefotaxime] | 13 |
| Amoxacillin-clavulanic acid | 30 |
| Ceftolozane-tazobactam | 3 |

Same assay, conditions: number of strains resistant; EUCAST; Hospital S. João, Porto; patients' blood cultures

| Molecule | EUCAST RM R |
| --- | --- |
| NCC[C@H](O)C(=O)N[C@@H]1C[C@H](N)[C@@H](O[C@H]2O[C@H](CN)[C@@H](O)[C@H](O)[C@H]2O)[C@H](O)[C@H]1O[C@H]1O[C@H](CO)[C@@H](O)[C@H](N)[C@H]1O [Amikacin] | 2 |
| CO/N=C(\C(=O)N[C@@H]1C(=O)N2C(C(=O)O)=C(COC(C)=O)CS[C@H]12)c1csc(N)n1 [Cefotaxime] | 8 |
| Amoxacillin-clavulanic acid | 33 |
| Ceftolozane-tazobactam | 1 |

Same assay, conditions: number of strains susceptible; CLSI; FASTinov, Porto; spiked on blood cultures

| Molecule | CLSI RM S |
| --- | --- |
| NCC[C@H](O)C(=O)N[C@@H]1C[C@H](N)[C@@H](O[C@H]2O[C@H](CN)[C@@H](O)[C@H](O)[C@H]2O)[C@H](O)[C@H]1O[C@H]1O[C@H](CO)[C@@H](O)[C@H](N)[C@H]1O [Amikacin] | 158 |
| CO/N=C(\C(=O)N[C@@H]1C(=O)N2C(C(=O)O)=C(COC(C)=O)CS[C@H]12)c1csc(N)n1 [Cefotaxime] | 27 |
| Amoxacillin-clavulanic acid | 20 |
| Ceftazidime-avibactam | 145 |
| Ceftolozane-tazobactam | 112 |

Same assay, conditions: number of strains susceptible; CLSI; Hospital Ramon et Cajal, Madrid; patients' blood cultures

| Molecule | CLSI RM S |
| --- | --- |
| NCC[C@H](O)C(=O)N[C@@H]1C[C@H](N)[C@@H](O[C@H]2O[C@H](CN)[C@@H](O)[C@H](O)[C@H]2O)[C@H](O)[C@H]1O[C@H]1O[C@H](CO)[C@@H](O)[C@H](N)[C@H]1O [Amikacin] | 77 |
| CO/N=C(\C(=O)N[C@@H]1C(=O)N2C(C(=O)O)=C(COC(C)=O)CS[C@H]12)c1csc(N)n1 [Cefotaxime] | 61 |
| Amoxacillin-clavulanic acid | 46 |
| Ceftazidime-avibactam | 81 |
| Ceftolozane-tazobactam | 75 |

Same assay, conditions: number of strains susceptible; CLSI; Hospital S. João, Porto; patients' blood cultures

| Molecule | CLSI RM S |
| --- | --- |
| NCC[C@H](O)C(=O)N[C@@H]1C[C@H](N)[C@@H](O[C@H]2O[C@H](CN)[C@@H](O)[C@H](O)[C@H]2O)[C@H](O)[C@H]1O[C@H]1O[C@H](CO)[C@@H](O)[C@H](N)[C@H]1O [Amikacin] | 81 |
| CO/N=C(\C(=O)N[C@@H]1C(=O)N2C(C(=O)O)=C(COC(C)=O)CS[C@H]12)c1csc(N)n1 [Cefotaxime] | 68 |
| Amoxacillin-clavulanic acid | 44 |
| Ceftazidime-avibactam | 81 |
| Ceftolozane-tazobactam | 80 |

Same assay, conditions: number of strains susceptible; EUCAST; FASTinov, Porto; spiked on blood cultures

| Molecule | EUCAST RM S |
| --- | --- |
| NCC[C@H](O)C(=O)N[C@@H]1C[C@H](N)[C@@H](O[C@H]2O[C@H](CN)[C@@H](O)[C@H](O)[C@H]2O)[C@H](O)[C@H]1O[C@H]1O[C@H](CO)[C@@H](O)[C@H](N)[C@H]1O [Amikacin] | 156 |
| CO/N=C(\C(=O)N[C@@H]1C(=O)N2C(C(=O)O)=C(COC(C)=O)CS[C@H]12)c1csc(N)n1 [Cefotaxime] | 27 |
| Amoxacillin-clavulanic acid | 19 |
| Ceftazidime-avibactam | 145 |
| Ceftolozane-tazobactam | 112 |

Same assay, conditions: number of strains susceptible; EUCAST; Hospital Ramon et Cajal, Madrid; patients' blood cultures

| Molecule | EUCAST RM S |
| --- | --- |
| NCC[C@H](O)C(=O)N[C@@H]1C[C@H](N)[C@@H](O[C@H]2O[C@H](CN)[C@@H](O)[C@H](O)[C@H]2O)[C@H](O)[C@H]1O[C@H]1O[C@H](CO)[C@@H](O)[C@H](N)[C@H]1O [Amikacin] | 77 |
| CO/N=C(\C(=O)N[C@@H]1C(=O)N2C(C(=O)O)=C(COC(C)=O)CS[C@H]12)c1csc(N)n1 [Cefotaxime] | 61 |
| Amoxacillin-clavulanic acid | 44 |
| Ceftazidime-avibactam | 81 |
| Ceftolozane-tazobactam | 75 |

Same assay, conditions: number of strains susceptible; EUCAST; Hospital S. João, Porto; patients' blood cultures

| Molecule | EUCAST RM S |
| --- | --- |
| NCC[C@H](O)C(=O)N[C@@H]1C[C@H](N)[C@@H](O[C@H]2O[C@H](CN)[C@@H](O)[C@H](O)[C@H]2O)[C@H](O)[C@H]1O[C@H]1O[C@H](CO)[C@@H](O)[C@H](N)[C@H]1O [Amikacin] | 80 |
| CO/N=C(\C(=O)N[C@@H]1C(=O)N2C(C(=O)O)=C(COC(C)=O)CS[C@H]12)c1csc(N)n1 [Cefotaxime] | 68 |
| Amoxacillin-clavulanic acid | 43 |
| Ceftazidime-avibactam | 81 |
| Ceftolozane-tazobactam | 80 |
